The text below walks through data of paper PMC12472494, “Anticonvulsant Potential of 1-Aryl-6,7-dimethoxy-1,2,3,4-tetrahydroisoquinolines: Insights from Strychnine and Nicotine Models in In Vivo and In Silico Studies” (Pharmaceuticals, 2025).

Data set [1] relates to strychnine-induced seizures. The experiment in a line: Strychnine-induced seizure model. Particulars: for responders at 1 mg/kg: Mus musculus, read-out: Survival Rate; for responders at 1 mg/kg / Duration of Tremor and Seizures / Latency to Tremor and Seizure Onset: oral dose 1.0 mg/kg 60 min before strychnine 1.5 mg/kg s.c., N = 10; for Duration of Tremor and Seizures / Latency to Tremor and Seizure Onset: mean ± SD; for survival rate of strychnine-poisoned animals: dose not given; for activity against strychnine-induced seizures (in words): ranking within the series. It is filed as in vivo, mice. The source says: (§1) The anticonvulsant effects of the examined substances were studied in male white mice weighing 18–22 g, divided into the following groups: control (including the strychnine and nicotine groups), carbamazepine group, Convulex group, and experimental groups (one for each tested substance). Simple randomization (“heads or tails” coin toss) was used to assign animals to groups. Each group contained 10 animals. Healthy animals were included in the experiments after a 14-day quarantine period. No animals were excluded from the study. Convulsant agents were administered subcutaneously at doses of 10.0 mg/kg for nicotine (Sigma–Aldrich, Saint Louis, MO, USA) and 1.5 mg/kg for strychnine (Sigma–Aldrich, Saint Louis, MO, USA), 60 min after the oral administration of the test substances at doses ranging from 0.1 to 10 mg/kg. The onset time, duration of tremors and seizures, and survival rate of the animals were recorded. Carbamazepine (Darnitsa, Kiev, Ukraine) at doses of 5.0–10.0 mg/kg and Convulex (valproate) (Gerot Pharmazeutika GmbH, Vienna, Austria) at doses of 75.0–100.0 mg/kg (based on the therapeutic anticonvulsant dose) were used as reference drugs.
(§2) Data were presented as mean ± SD for different groups. Statistical analysis was performed using OriginPro 9.0 (MicroCal Software, Northampton, MA, USA), with p < 0.05 considered statistically significant.

The subject of data set [2] is tremorogenic and convulsive actions of nicotine. The experiment in a line: Nicotine-induced tremor and seizure model. It is filed as in vivo, mice. Conditions: for responders at 1 mg/kg: Mus musculus, po, read-out: Survival Rate; for Duration of Seizures / Latency to Seizure Onset: oral dose 1.0 mg/kg 60 min before nicotine 10 mg/kg s.c., mean ± SD, N = 10; for survival of poisoned animals compared to carbamazepine and valproate (in words): mouse, in vivo; for survival rate of the animals increased to: at low doses (0.1–5 mg/kg); for activity against tremorogenic and convulsive actions of nicotine versus reference drugs (in words): doses of 0.1–5 mg/kg.
Text: as §1, §2

On the set-up of data set [3]: method as in PMID 36677539. Particulars: per os; cited from earlier work.
The mark [4] stands for this setting: doses of 0.5–1 mg/kg, versus control.

Values joined by “and” are separate entries in the source; they are usually repeats but may differ in a detail not shown here. Equal entries are not always repeated. “Also recorded” adds a separate entry of the source.

With `COc1ccc(C2NCCc3cc(OC)c(OC)cc32)cc1Br` (stereo not drawn) [Compound 19, 1-(3′-Bromo-4′-methoxyphenyl)-6,7-dimethoxy-1,2,3,4-tetrahydroisoquinoline], in data set [1], the responders at 1 mg/kg is 40%; the “Duration of Tremor and Seizures” value turned out to be 0.59 ± 0.9 min; the “Latency to Tremor and Seizure Onset” value is recorded as 16.0 ± 1.4 min. Besides, in data set [2], the responders at 1 mg/kg was 80%, the “Duration of Seizures” value stood at 19.0 ± 0.8 min and the “Latency to Seizure Onset” value is listed as 1.8 ± 0.07 min. Moreover, the LD50 in data set [3] is recorded as 327.9 (287.1 ± 363.8) mg/kg.

Consider `COc1ccc(C2NCCc3cc(OC)c(OC)cc32)cc1O` (stereo not drawn) [Compound 20, 1-(3′-Hydroxy-4′-methoxyphenyl)-6,7-dimethoxy-1,2,3,4-tetrahydroisoquinoline], for which, in data set [1], the responders at 1 mg/kg amounted to 90%; the “survival rate of strychnine-poisoned animals” value is approximately 90%; the “Duration of Tremor and Seizures” value was found to be 0.63 ± 0.7 min; the “Latency to Tremor and Seizure Onset” value was 18.2 ± 1.4 min. Moreover, the “activity against strychnine-induced seizures (in words)” value in data set [1] was “most active; also recorded: highest activity”. Besides, in data set [1] (doses of 1–10 mg/kg), the “effect on the duration of the seizures” value was “minimal effect” and the “increase of animal survival” value was determined as 90%. Moreover, the “extension of the latency period for seizures” value in data set [1] (doses of 1–10 mg/kg, versus control) is given as 27–86%. Besides, in data set [2], the responders at 1 mg/kg worked out at 70%, the “Duration of Seizures” value amounted to 11.0 ± 0.7 min and the “Latency to Seizure Onset” value is on record as 2.8 ± 0.07 min. The LD50 in data set [3] is on record as 964.8 (916.5 ± 998.2) mg/kg.

`COc1cc(C2NCCc3cc(OC)c(OC)cc32)ccc1O` (stereo not drawn) [Compound 21, 1-(4′-Hydroxy-3′-methoxyphenyl)-6,7-dimethoxy-1,2,3,4-tetrahydroisoquinoline]: in data set [1], the responders at 1 mg/kg turned out to be 40%; the “Duration of Tremor and Seizures” value turned out to be 0.52 ± 0.4 min; the “Latency to Tremor and Seizure Onset” value was 15.4 ± 1.5 min. For the same compound, in data set [2], the responders at 1 mg/kg amounted to 60%, the “Duration of Seizures” value was 14.3 ± 0.6 min and the “Latency to Seizure Onset” value worked out at 1.8 ± 0.04 min. In data set [3], the LD50 was 1663.6 (1623.1 ± 1629.1) mg/kg.

For `COc1ccc(C2NCCc3cc(OC)c(OC)cc32)cc1OC` (stereo not drawn) [Compound 22, 1-(3′,4′-Dimethoxyphenyl)-6,7-dimethoxy-1,2,3,4-tetrahydroisoquinoline], in data set [1], the responders at 1 mg/kg turned out to be 30%; the “survival rate of strychnine-poisoned animals” value is given as “no more than 40%”; the “Duration of Tremor and Seizures” value came to 0.71 ± 0.6 min; the “Latency to Tremor and Seizure Onset” value is reported as 12.7 ± 1.3 min. Further, in data set [2], the responders at 1 mg/kg amounted to 80% and the “Latency to Seizure Onset” value is recorded as 2.2 ± 0.04 min. Further, in data set [3], the LD50 is listed as 666.6 (557.9 ± 760.2) mg/kg.

As for `COc1cc2c(cc1OC)C(c1cccc(OC)c1[N+](=O)[O-])NCC2` (stereo not drawn) [Compound 23, 1-(3′-Methoxy-2′-nitrophenyl)-6,7-dimethoxy-1,2,3,4-tetrahydroisoquinoline], in data set [1], the responders at 1 mg/kg was found to be 30%; the “Duration of Tremor and Seizures” value is recorded as 0.60 ± 0.4 min; the “Latency to Tremor and Seizure Onset” value is 14.6 ± 1.4 min. For the same compound, in data set [2], the responders at 1 mg/kg worked out at 20%, the “Duration of Seizures” value is on record as 5.4 ± 0.9 min and the “Latency to Seizure Onset” value is reported as 1.5 ± 0.08 min. For the same compound, the LD50 in data set [3] is listed as 315.4 (281.0 ± 344.2) mg/kg.

Regarding `COc1cc(Br)c(C2NCCc3cc(OC)c(OC)cc32)cc1O` (stereo not drawn) [Compound 24, 1-(2′-Bromo-4′-methoxy-5′-hydroxyphenyl)-6,7-dimethoxy-1,2,3,4-tetrahydroisoquinoline], in data set [1], the responders at 1 mg/kg is 30%; the “Duration of Tremor and Seizures” value is on record as 0.32 ± 0.4 min; the “Latency to Tremor and Seizure Onset” value amounted to 10.2 ± 1.2 min. Besides, in data set [2], the responders at 1 mg/kg came to 70%; the “survival of poisoned animals compared to carbamazepine and valproate (in words)” value is on record as “did not improve the survival”; the “Duration of Seizures” value was 7.3 ± 0.3 min; the “Latency to Seizure Onset” value stood at 2.1 ± 0.09 min. Also, in data set [3], the LD50 was 546.9 (516.3 ± 571.6) mg/kg.

Consider `COc1cc(Br)c(C2NCCc3cc(OC)c(OC)cc32)cc1OC` (stereo not drawn) [Compound 25, 1-(2′-Bromo-4′,5′-dimethoxyphenyl)-6,7-dimethoxy-1,2,3,4-tetrahydroisoquinoline], for which, in data set [1], the responders at 1 mg/kg came out at 90%; the “survival rate of strychnine-poisoned animals” value came out at 90%; the “Duration of Tremor and Seizures” value worked out at 0.14 ± 0.6 min; the “Latency to Tremor and Seizure Onset” value came to 16.5 ± 1.5 min. Moreover, the “activity against strychnine-induced seizures (in words)” value in data set [1] is listed as “most active; also recorded: highest activity”. In data set [1] (doses of 0.5–1 mg/kg), the “increase of animal survival” value came to 90%. Moreover, in data set [1] (setting [4]), the “extension of the latency period for seizures” value is 30–100% and the “reduction of seizure duration” value was 3.7–4 times. In data set [2], the responders at 1 mg/kg was found to be 90%; the “survival rate of the animals increased to” value is given as 90–100%; the “activity against tremorogenic and convulsive actions of nicotine versus reference drugs (in words)” value is recorded as “comparable activity to the reference drugs”; the “Duration of Seizures” value was determined as 9.0 ± 0.9 min. In addition, the “Latency to Seizure Onset” value in data set [2] came to 2.2 ± 0.04 min. Moreover, the LD50 in data set [3] is given as 272.1 (249.1 ± 295.6) mg/kg.

Turning to `COc1cc2c(cc1OC)C(c1cc(OC)c(OC)cc1[N+](=O)[O-])NCC2` (stereo not drawn) [Compound 26, 1-(4′,5′-Dimethoxy-2′-nitrophenyl)-6,7-dimethoxy-1,2,3,4-tetrahydroisoquinoline], in data set [1], the responders at 1 mg/kg came to 40%; the “Duration of Tremor and Seizures” value is 0.51 ± 0.8 min; the “Latency to Tremor and Seizure Onset” value stood at 16.7 ± 1.2 min. Further, in data set [2], the responders at 1 mg/kg amounted to 80%, the “Duration of Seizures” value is on record as 10.8 ± 0.4 min and the “Latency to Seizure Onset” value was determined as 2.6 ± 0.03 min. Moreover, in data set [3], the LD50 was 524.5 (501.3 ± 547.7) mg/kg.

For the compound `COc1cc2c(cc1OC)C(c1ccc(OC)c(O)c1Br)NCC2` (stereo not drawn) [Compound 27, 1-(2′-Bromo-3′-hydroxy-4′-methoxyphenyl)-6,7-dimethoxy-1,2,3,4-tetrahydroisoquinoline], in data set [1], the responders at 1 mg/kg was determined as 40%; the “Duration of Tremor and Seizures” value is recorded as 0.53 ± 0.3 min; the “Latency to Tremor and Seizure Onset” value is recorded as 10.5 ± 1.5 min. Besides, in data set [2], the responders at 1 mg/kg was determined as 90%; the “survival rate of the animals increased to” value is recorded as 90–100%; the “activity against tremorogenic and convulsive actions of nicotine versus reference drugs (in words)” value is given as “comparable activity to the reference drugs”; the “survival of poisoned animals compared to carbamazepine and valproate (in words)” value was “did not improve the survival”. In data set [2], the “Duration of Seizures” value was 9.7 ± 0.9 min and the “Latency to Seizure Onset” value turned out to be 2.2 ± 0.02 min. Further, in data set [3], the LD50 was 4700 mg/kg and 4937 mg/kg and 4937.4 (4827.7 ± 5084.9) mg/kg.

In the case of `COc1cc2c(cc1OC)C(c1cc(Br)c(O)c(OC)c1)NCC2` (stereo not drawn) [Compound 28, 1-(5′-Bromo-4′-hydroxy-3′-methoxyphenyl)-6,7-dimethoxy-1,2,3,4-tetrahydroisoquinoline], in data set [1], the responders at 1 mg/kg amounted to 20%; the “Duration of Tremor and Seizures” value turned out to be 0.34 ± 0.8 min; the “Latency to Tremor and Seizure Onset” value is reported as 15.5 ± 1.5 min. In data set [2], the responders at 1 mg/kg was found to be 70%; the “survival of poisoned animals compared to carbamazepine and valproate (in words)” value is “did not improve the survival”; the “Duration of Seizures” value turned out to be 9.2 ± 0.4 min; the “Latency to Seizure Onset” value is 2.7 ± 0.04 min. Also, the LD50 in data set [3] was 1532.7 (1471.5 ± 1579.5) mg/kg.

Regarding `COc1cc2c(cc1OC)C(c1ccc3c(c1)OCO3)NCC2` (stereo not drawn) [Compound 29, 1-(3′,4′-Methylenedioxyphenyl)-6,7-dimethoxy-1,2,3,4-tetrahydroisoquinoline], in data set [1], the responders at 1 mg/kg turned out to be 50%; the “Duration of Tremor and Seizures” value amounted to 0.32 ± 0.9 min; the “Latency to Tremor and Seizure Onset” value was determined as 12.5 ± 1.8 min. Moreover, in data set [2], the responders at 1 mg/kg was determined as 90%; the “survival rate of the animals increased to” value was 90–100%; the “activity against tremorogenic and convulsive actions of nicotine versus reference drugs (in words)” value is recorded as “comparable activity to the reference drugs”; the “Duration of Seizures” value turned out to be 3.7 ± 0.9 min. Also, in data set [2], the “Latency to Seizure Onset” value amounted to 2.5 ± 0.07 min. Further, the LD50 in data set [3] was 267.2 (226.3 ± 301.1) mg/kg.

Regarding `COc1cc2c(cc1OC)C(c1cc3c(cc1Br)OCO3)NCC2` (stereo not drawn) [Compound 30, 1-(2′-Bromo-4′,5′-methylenedioxyphenyl)-6,7-dimethoxy-1,2,3,4-tetrahydroisoquinoline], in data set [1], the responders at 1 mg/kg stood at 30%; the “Duration of Tremor and Seizures” value came to 0.41 ± 0.4 min; the “Latency to Tremor and Seizure Onset” value was 11.2 ± 1.2 min. In data set [2], the responders at 1 mg/kg came out at 90%; the “survival rate of the animals increased to” value was 90–100%; the “activity against tremorogenic and convulsive actions of nicotine versus reference drugs (in words)” value was “comparable activity to the reference drugs”; the “Duration of Seizures” value turned out to be 7.0 ± 0.2 min. The “Latency to Seizure Onset” value in data set [2] is reported as 2.5 ± 0.09 min. Also, the LD50 in data set [3] was 711.7 (604.3 ± 792.9) mg/kg.
